Reference: US9238658B2, “Substituted piperidinyl-carboxamide derivatives useful as SCD 1 inhibitors” (Janssen Pharmaceutica NV, priority 2011, dated 2016)

Target: SCD1 (Rattus norvegicus (Rat), UniProt P07308)
Assay: SCD1 enzymatic assay in rat liver microsomes (RLM)
Assay type: biochemical
Conditions: for inhibition at 1 µM: 1 μM test compound
Description: Step 1: Preparation of Rat Liver Microsome (RLM)
Sprague Dawley rats from Charles River (200-225 g) underwent 2-cycle of fast-re-feeding (24-hour fast followed by 24-hour feeding with fat-free high carbohydrate diet, Research Diet, D00042802). The livers were removed and homogenized 1:4 (w/v) with pre-chilled, homogenizing buffer (10 mM Tris-HCl, 0.25 M sucrose, 1 mM EDTA, pH 7.4, supplemented with protease inhibitor cocktail). The homogenate was spun at 12,000×g for 15 min at 4° C. The supernatant was then re-centrifuged at 100,000×g for 60 min at 4° C. The pellet was re-suspended in 2 ml pre-chilled […] potassium phosphate buffer, pH 7.2, 10 mM EDTA at a concentration of 20 mg/ml. The resulting rat liver microsome (RLM) preparation was stored at […].
Step 2: SCD1 Enzymatic Assay in RLM:
The SCD1 enzymatic assay was done in a volume of 50 μL using 10 μg of RLM (prepared as described above) in a 96-well polypropylene plate (enzyme reaction buffer contains 0.1 M K-Phosphate Buffer, 10 mM ATP, 6 mM MgCl2, 1 mM CoA, 1 mM β-NADH, 1.6 mM L-glutathione, 20 μM Stearoyl-CoA). Stearoyl-[9,10-^3H]—CoA (ARC-0390, 1 mCi/mL, 60 Ci/mmol,) was added at a final concentration of 2 μCi/mL. Test compound was then added to the reaction mixture at the selected concentration. After incubation at room temperature for 2 hours, 5 μL 1 N HCl was added to stop the reaction, followed by addition of 25 μL of 10% charcoal. The reaction mixture was then transferred to 96-well Multiscreen plate (Millipore, Cat# MSFCN6B50). [^3H2O] was collected into Opti-plate (PE, Cat #6005290) by centrifuge, at 1,000 rpm for 2 minutes. 150 μL Microscint 40 (PE, cat #6013641) was then added to each well and counted on Topcount for [^3H] counts per minute (cpm). The measured cpm values were fitted with Sigmoidal dose-response curve fit with Graphpad Prism.

SCD1, sequence (P07308 whole entry): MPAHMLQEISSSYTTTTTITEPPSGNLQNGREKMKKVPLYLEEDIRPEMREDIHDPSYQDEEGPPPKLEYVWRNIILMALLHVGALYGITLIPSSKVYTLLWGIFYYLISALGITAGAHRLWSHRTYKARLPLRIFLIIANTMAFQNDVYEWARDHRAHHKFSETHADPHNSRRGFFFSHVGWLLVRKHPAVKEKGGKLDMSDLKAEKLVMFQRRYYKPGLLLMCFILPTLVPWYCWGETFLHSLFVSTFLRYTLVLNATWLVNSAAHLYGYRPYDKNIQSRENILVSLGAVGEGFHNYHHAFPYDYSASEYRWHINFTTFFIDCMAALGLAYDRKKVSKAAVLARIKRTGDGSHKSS

Structure (SMILES)	IC50 [nM]	inhibition at 1 µM [%]
CNC(=O)c1csc(NC(=O)N2CCC(N3CCc4ccc(F)cc43)CC2)n1 [Compound 23, 2-(4-(6-fluoroindolin-1-yl)piperidine-1-carboxamido)-N-methylthiazole-4-carboxamide]	> 1000	20
CC(C)(C)OC(=O)N1CCc2nc(NC(=O)N3CCC(N4CCc5ccc(F)cc54)CC3)sc2C1 [Compound 34, tert-butyl 2-(4-(6-fluoroindolin-1-yl)piperidine-1-carboxamido)-6,7-dihydrothiazolo[5,4-c]pyridine-5(4H)-carboxylate]	–	35
O=C(Nc1ccc2c(c1)CNCC2)N1CCC(N2CCc3ccc(F)cc32)CC1 [Compound 46, 4-(6-fluoroindolin-1-yl)-N-(1,2,3,4-tetrahydroisoquinolin-7-yl)piperidine-1-carboxamide]	–	27
CCOC(=O)Cc1csc(NC(=O)N2CCC(c3noc4ccc(F)cc34)CC2)n1 [Compound 51, ethyl 2-(2-(4-(5-fluorobenzo[d]isoxazol-3-yl)piperidine-1-carboxamido)thiazol-4-yl)acetate]	579	68
CCOC(=O)c1ccc(NC(=O)N2CCC(N3CCc4ccc(F)cc43)CC2)cc1 [Compound 42, ethyl 4-(4-(6-fluoroindolin-1-yl)piperidine-1-carboxamido)benzoate]	–	21
Cc1csc(NC(=O)N2CCC(c3c[nH]c4ccccc34)CC2)n1 [Compound 65, 4-(1H-indol-3-yl)-N-(4-methylthiazol-2-yl)piperidine-1-carboxamide]	–	2
O=C(Nc1ccc(CO)cc1)N1CCC(N2CCc3ccc(F)cc32)CC1 [Compound 44, 4-(6-fluoroindolin-1-yl)-N-(4-(hydroxymethyl)phenyl)piperidine-1-carboxamide]	–	31
CCOC(=O)CN1CCc2nc(NC(=O)N3CCC(N4CCc5ccc(F)cc54)CC3)sc2C1 [Compound 56, ethyl 2-(2-(4-(6-fluoroindolin-1-yl)piperidine-1-carboxamido)-6,7-dihydrothiazolo[5,4-c]pyridin-5(4H)-yl)acetate]	–	42
COC(=O)Cc1cnc(NC(=O)N2CCC(c3noc4ccc(F)cc34)CC2)s1 [Compound 52, methyl 2-(2-(4-(5-fluorobenzo[d]isoxazol-3-yl)piperidine-1-carboxamido)thiazol-5-yl)acetate]	–	15
CC(C)(C)[Si](C)(C)OC1CCc2nc(NC(=O)N3CCC(N4CCc5ccc(F)cc54)CC3)sc2C1 (stereo not drawn) [Compound 32, N-(6-((tert-butyldimethylsilyl)oxy)-4,5,6,7-tetrahydrobenzo[d]thiazol-2-yl)-4-(6-fluoroindolin-1-yl)piperidine-1-carboxamide]	–	31
NC(=O)Cc1csc(NC(=O)N2CCC(N3CCc4ccc(F)cc43)CC2)n1 [Compound 30, N-(4-(2-amino-2-oxoethyl)thiazol-2-yl)-4-(6-fluoroindolin-1-yl)piperidine-1-carboxamide]	845	57
Cc1csc(NC(=O)N2CCC(c3noc4cc(F)ccc34)CC2)n1 [Compound 11, 4-(6-fluorobenzo[d]isoxazol-3-yl)-N-(4-methylthiazol-2-yl)piperidine-1-carboxamide]	–	40
CCCCc1cc(NC(=O)N2CCC(c3noc4ccc(F)cc34)CC2)ccc1F [Compound 8, N-(3-butyl-4-fluorophenyl)-4-(5-fluorobenzo[d]isoxazol-3-yl)piperidine-1-carboxamide]	–	12
CNC(=O)c1cccc(NC(=O)N2CCC(c3noc4cc(F)ccc34)CC2)c1 [Compound 10, 4-(6-fluorobenzo[d]isoxazol-3-yl)-N-(3-(methylcarbamoyl)phenyl)piperidine-1-carboxamide]	–	23
COC(=O)Cc1cnc(NC(=O)N2CCC(N3CCc4ccc(F)cc43)CC2)s1 [Compound 49, methyl 2-(2-(4-(6-fluoroindolin-1-yl)piperidine-1-carboxamido)thiazol-5-yl)acetate]	–	48
CNC(=O)c1cccc(NC(=O)N2CCC(c3c[nH]c4ccccc34)CC2)c1 [Compound 64, 4-(1H-indol-3-yl)-N-(3-(methylcarbamoyl)phenyl)piperidine-1-carboxamide]	–	15
NC(=O)c1csc(NC(=O)N2CCC(N3CCc4ccc(F)cc43)CC2)n1 [Compound 26, 2-(4-(6-fluoroindolin-1-yl)piperidine-1-carboxamido)thiazole-4-carboxamide]	682	62
CNC(=O)c1cccc(NC(=O)N2CCC(N3C(=O)Cc4ccccc43)CC2)c1 [Compound 1, N-(3-(methylcarbamoyl)phenyl)-4-(2-oxoindolin-1-yl)piperidine-1-carboxamide]	–	7
CCCc1nc2ccc(NC(=O)N3CCC(c4noc5ccc(F)cc45)CC3)cc2o1 [Compound 7, 4-(5-fluorobenzo[d]isoxazol-3-yl)-N-(2-propylbenzo[d]oxazol-6-yl)piperidine-1-carboxamide]	1010	55
CNC(=O)Cc1csc(NC(=O)N2CCC(N3CCc4ccc(F)cc43)CC2)n1 [Compound 28, 4-(6-fluoroindolin-1-yl)-N-(4-(2-(methylamino)-2-oxoethyl)thiazol-2-yl)piperidine-1-carboxamide]	> 1000	22
O=C(Nc1nc(CN2CCCCC2)cs1)N1CCC(N2CCc3ccc(F)cc32)CC1 [Compound 31, 4-(6-fluoroindolin-1-yl)-N-(4-(piperidin-1-ylmethyl)thiazol-2-yl)piperidine-1-carboxamide]	–	44
CCN1CCc2nc(NC(=O)N3CCC(N4CCc5ccc(F)cc54)CC3)sc2C1 [Compound 53, N-(5-ethyl-4,5,6,7-tetrahydrothiazolo[5,4-c]pyridin-2-yl)-4-(6-fluoroindolin-1-yl)piperidine-1-carboxamide]	–	34
CCOC(=O)c1csc(NC(=O)N2CCC(N3CCc4ccc(F)cc43)CC2)n1 [Compound 22, ethyl 2-(4-(6-fluoroindolin-1-yl)piperidine-1-carboxamido)thiazole-4-carboxylate]	> 1000	8
CC(=O)N1CCc2nc(NC(=O)N3CCC(N4CCc5ccc(F)cc54)CC3)sc2C1 [Compound 40, N-(5-acetyl-4,5,6,7-tetrahydrothiazolo[5,4-c]pyridin-2-yl)-4-(6-fluoroindolin-1-yl)piperidine-1-carboxamide]	–	46
NC(=O)c1cc(NC(=O)N2CCC(N3CCc4ccc(F)cc43)CC2)ccc1CO [Compound 48, N-(3-carbamoyl-4-(hydroxymethyl)phenyl)-4-(6-fluoroindolin-1-yl)piperidine-1-carboxamide]	909	55
NC(=O)CN1CCc2nc(NC(=O)N3CCC(N4CCc5ccc(F)cc54)CC3)sc2C1 [Compound 57, N-(5-(2-amino-2-oxoethyl)-4,5,6,7-tetrahydrothiazolo[5,4-c]pyridin-2-yl)-4-(6-fluoroindolin-1-yl)piperidine-1-carboxamide]	–	38
CCOC(=O)c1cccc(NC(=O)N2CCC(N3CCc4ccc(F)cc43)CC2)c1 [Compound 41, ethyl 3-(4-(6-fluoroindolin-1-yl)piperidine-1-carboxamido)benzoate]	534	53
